This is an account of results in PubChem BioAssay AID330 (DTP/NCI, 2004).

The subject of this experiment is P388 leukemia ip, CD2F1 mice, survival T/C. Briefly: NCI In Vivo Anticancer Drug Screen. Data for tumor model P388 Leukemia (intraperitoneal) in CD2F1 (CDF1) mice. As to conditions: endpoint: median survival time, higher = longer survival. In a few lines: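 Mice carrying the transplanted tumor received test compound or vehicle. Survival was recorded in each group, and the value is the treated-group measurement divided by that of the vehicle-treated control group.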

Setting [1] is: dose: 60.0 mg/kg/injection, schedule: Q01DX005 (ip), vehicle: saline with Tween-80.
[2] abbreviates: dose: 60.0 mg/kg/injection, schedule: Q01DX005 (ip), vehicle: Klucel (hydroxypropylcellulose) (HPC).
[3] abbreviates: dose: 120.0 mg/kg/injection, schedule: Q01DX005 (ip), vehicle: Klucel (hydroxypropylcellulose) (HPC).
Where [4] appears, read: dose: 50.0 mg/kg/injection, schedule: Q01DX005 (ip), vehicle: Klucel (hydroxypropylcellulose) (HPC).
[5] abbreviates: dose: 100.0 mg/kg/injection, schedule: Q01DX005 (ip), vehicle: Klucel (hydroxypropylcellulose) (HPC).
Where [6] appears, read: dose: 200.0 mg/kg/injection, schedule: Q01DX005 (ip), vehicle: Klucel (hydroxypropylcellulose) (HPC).
[7] abbreviates: dose: 120.0 mg/kg/injection, schedule: Q01DX005 (ip), vehicle: saline with Tween-80.
Where [8] appears, read: dose: 50.0 mg/kg/injection, schedule: Q01DX005 (ip), vehicle: saline with Tween-80.
[9] abbreviates: dose: 100.0 mg/kg/injection, schedule: Q01DX005 (ip), vehicle: saline with Tween-80.
Where [10] appears, read: dose: 200.0 mg/kg/injection, schedule: Q01DX005 (ip), vehicle: saline with Tween-80.

The structures appear in SMILES notation. “And” between values parts separate entries of the source, which are not always exact repeats. Identical values can stand only once. Inconclusive results and toxic doses are left out.

As to `Cc1ccc(/C=C2/C(=O)N(c3ccccc3)N=C2c2ccccc2)cc1`, the T/C (dose: 1.87 mg/kg/injection, schedule: Q01DX005 (ip), vehicle: saline with Tween-80) was 110 % of control; the T/C (dose: 3.75 mg/kg/injection, schedule: Q01DX005 (ip), vehicle: saline with Tween-80) is 113 % of control; the T/C (dose: 3.75 mg/kg/injection, schedule: Q01DX005 (ip), vehicle: saline) is 95 % of control; the T/C (dose: 7.5 mg/kg/injection, schedule: Q01DX005 (ip), vehicle: saline with Tween-80) was 113 % of control; the T/C (dose: 15.0 mg/kg/injection, schedule: Q01DX005 (ip), vehicle: saline with Tween-80) is 110 % of control; the T/C (dose: 15.0 mg/kg/injection, schedule: Q01DX005 (ip), vehicle: saline) is 100 % of control. The T/C (dose: 30.0 mg/kg/injection, schedule: Q01DX005 (ip), vehicle: saline with Tween-80) was 109 % of control and the T/C under setting [1] is 108 % of control.

Turning to `Cc1cc2c(cc1C)NC1=C(N2)OC(c2ccccc2C)C1=O` (stereo not given), the T/C is, setting by setting: under setting [2], 96 % of control; under setting [3], 106 % of control.

Take `COc1cc(/C=C/C(=O)O)cc(OC)c1`: the T/C reads like this: under setting [4], 103 % of control; under setting [5], 103 % of control; under setting [6], 109 % of control.

Regarding `CNC(=S)NCOCCOC(C)=O`, the T/C by setting is: (dose: 60.0 mg/kg/injection, schedule: Q01DX005 (ip), vehicle: saline) 98 % of control; (dose: 120.0 mg/kg/injection, schedule: Q01DX005 (ip), vehicle: saline) 102 % of control; (dose: 240.0 mg/kg/injection, schedule: Q01DX005 (ip), vehicle: saline) 102 % of control.

With `COc1ccc(-c2c3c(cc4cc5c(cc24)OCO5)C(=O)OC3)cc1OC`, the T/C is 110 % of control (dose: 12.0 mg/kg/injection, schedule: Q01DX009 (ip), vehicle: Klucel (hydroxypropylcellulose) (HPC)); 91 % of control (dose: 24.0 mg/kg/injection, schedule: Q01DX009 (ip), vehicle: Klucel (hydroxypropylcellulose) (HPC)); 86 % of control (dose: 48.0 mg/kg/injection, schedule: Q01DX009 (ip), vehicle: Klucel (hydroxypropylcellulose) (HPC)); 88 % of control (dose: 96.0 mg/kg/injection, schedule: Q01DX009 (ip), vehicle: Klucel (hydroxypropylcellulose) (HPC)).

Regarding `C=C1C(=O)CCC1C(=O)O` (stereo not given), the T/C is, setting by setting: (dose: 178.0 mg/kg/injection, schedule: Q01DX001 (ip), vehicle: saline) 100 % of control; (dose: 266.0 mg/kg/injection, schedule: Q01DX001 (ip), vehicle: saline) 109 % of control; (dose: 400.0 mg/kg/injection, schedule: Q01DX001 (ip), vehicle: saline) 114 % of control; (dose: 600.0 mg/kg/injection, schedule: Q01DX001 (ip), vehicle: saline) 118 % of control; (dose: 900.0 mg/kg/injection, schedule: Q01DX001 (ip), vehicle: saline) 112 % of control.

Consider `CCC1=C[C@@H]2C[C@](C(=O)OC)(c3cc4c(cc3OC)N(C)[C@H]3[C@@](O)(C(=O)OC)[C@H](OC(C)=O)[C@]5(CC)C=CCN6CC[C@]43[C@@H]65)c3[nH]c4ccccc4c3CCN(C1)[C@@H]2O`, for which the T/C is, setting by setting: (dose: 2.5 mg/kg/injection, schedule: Q01DX001 (ip), vehicle: water) 117 % of control; (dose: 20.0 mg/kg/injection, schedule: Q01DX001 (ip), vehicle: water) 153 % of control and 159 % of control; (dose: 40.0 mg/kg/injection, schedule: Q01DX001 (ip), vehicle: water) 161 % of control and 170 % of control; (dose: 80.0 mg/kg/injection, schedule: Q01DX001 (ip), vehicle: water) 180 % of control; (dose: 160.0 mg/kg/injection, schedule: Q01DX001 (ip), vehicle: water) 93 % of control.

In the case of `O=C(CCl)Nc1cc2ccccc2oc1=O`, the T/C was 105 % of control under setting [1] and 109 % of control under setting [7].

Consider `Nc1cc(-c2ccc(Cl)cc2)nn1-c1nnc(-c2ccccc2)c(-c2ccccc2)n1`, for which the T/C is 93 % of control under setting [8], 100 % of control under setting [9] and 103 % of control under setting [10].

In the case of `CC1=NNC(=O)CC1C(O)c1ccc(F)cc1` (stereo not given), the T/C was 100 % of control under setting [1]; 104 % of control under setting [7]; 100 % of control (dose: 240.0 mg/kg/injection, schedule: Q01DX005 (ip), vehicle: saline with Tween-80).

In the case of `CCCCC(CCC)(CCN)CCCC`, the T/C is, setting by setting: (dose: 3.0 mg/kg/injection, schedule: Q01DX009 (ip), vehicle: saline) 95 % of control; (dose: 6.0 mg/kg/injection, schedule: Q01DX009 (ip), vehicle: saline) 100 % of control; (dose: 12.0 mg/kg/injection, schedule: Q01DX009 (ip), vehicle: saline) 104 % of control.

On to `CCCCCCCCCCN1CCOCCOCCN(CCCCCCCCCC)CCOCCOCC1`, for which the T/C was 105 % of control (dose: 1.56 mg/kg/injection, schedule: Q01DX005 (ip), vehicle: saline with Tween-80); 100 % of control (dose: 3.13 mg/kg/injection, schedule: Q01DX005 (ip), vehicle: saline with Tween-80); 107 % of control (dose: 6.25 mg/kg/injection, schedule: Q01DX005 (ip), vehicle: saline with Tween-80); 99 % of control (dose: 12.5 mg/kg/injection, schedule: Q01DX005 (ip), vehicle: saline with Tween-80).

Consider `CC(Nc1cccc(Cl)c1)S(=O)(=O)O` (stereo not given), for which the T/C (dose: 50.0 mg/kg/injection, schedule: Q01DX009 (ip), vehicle: saline) is 100 % of control; the T/C (dose: 100.0 mg/kg/injection, schedule: Q01DX009 (ip), vehicle: saline) is 100 % of control; the T/C (dose: 200.0 mg/kg/injection, schedule: Q01DX009 (ip), vehicle: saline) was 94 % of control.

In the case of `Cc1cc(N2CCOCC2)n2c(nc3ccccc32)c1C#N`, the T/C reads like this: under setting [1], 96 % of control; under setting [7], 100 % of control.

Consider `Cc1ncc([N+](=O)[O-])n1CCSC(N)=O`, for which the T/C is 102 % of control and 105 % of control (dose: 50.0 mg/kg/injection, schedule: Q04DX003 (ip), vehicle: saline); 102 % of control and 114 % of control (dose: 100.0 mg/kg/injection, schedule: Q04DX003 (ip), vehicle: saline); 100 % of control and 114 % of control (dose: 200.0 mg/kg/injection, schedule: Q04DX003 (ip), vehicle: saline); 100 % of control and 120 % of control (dose: 400.0 mg/kg/injection, schedule: Q04DX003 (ip), vehicle: saline).

As for `CSCCCCCCSC`, the T/C by setting is: (dose: 50.0 mg/kg/injection, schedule: Q04DX003 (ip), vehicle: saline with Tween-80) 100 % of control; (dose: 100.0 mg/kg/injection, schedule: Q04DX003 (ip), vehicle: saline with Tween-80) 100 % of control; (dose: 200.0 mg/kg/injection, schedule: Q04DX003 (ip), vehicle: saline with Tween-80) 109 % of control.

In the case of `CC(C)c1oc(=O)cc2c1C(O)C1OC(=O)C3(C)C(O)C4OC4C2(C)C13` (stereo not given), the T/C reads like this: (dose: 15.0 mg/kg/injection, schedule: Q01DX005 (ip), vehicle: Klucel (hydroxypropylcellulose) (HPC)) 103 % of control and 105 % of control; (dose: 30.0 mg/kg/injection, schedule: Q01DX005 (ip), vehicle: Klucel (hydroxypropylcellulose) (HPC)) 103 % of control and 107 % of control; under setting [2], 120 % of control; under setting [3], 111 % of control.

`COC(=O)C1CC1(Cl)OC` (stereo not given): the T/C by setting is: (dose: 50.0 mg/kg/injection, schedule: Q01DX009 (ip), vehicle: saline with Tween-80) 102 % of control; (dose: 100.0 mg/kg/injection, schedule: Q01DX009 (ip), vehicle: saline with Tween-80) 102 % of control; (dose: 200.0 mg/kg/injection, schedule: Q01DX009 (ip), vehicle: saline with Tween-80) 105 % of control.

Turning to `O=C(Nc1ccc(O)c2c1C(=O)c1ccccc1C2=O)Oc1ccccc1`, the T/C is, setting by setting: under setting [4], 101 % of control; under setting [5], 102 % of control; under setting [6], 99 % of control.

Take `COc1ccc2c(c1)OC(C)(C)C(c1ccccc1)=C2c1ccc(O)c([N+](=O)[O-])c1`: the T/C is, setting by setting: under setting [8], 100 % of control; under setting [9], 101 % of control; under setting [10], 102 % of control.
